# Assay results reported in US10759835B2, “Monomeric streptavidin mutants, methods of using the same and processes of manufacturing proteins” (The Research Foundation for The State University of New York, priority 2016, dated 2020).
# Experiment: Fluorescence polarization spectroscopy, biotin dissociation rate (koff)
# Type: binding
# Details: 37° C.
# Protocol: FIG. 4. In vitro characterization of purified mSA mutants. a) Stability of mSA-RF and mSA-RWT in PBS was measured by circular dichroism spectroscopy with or without biotin. b) Fluorescence polarization spectroscopy was used to measure the dissociation rate of biotin-fluorescein. The dissociation rate, koff, was computed by fitting normalized fluorescence polarization data, or bound fraction f, to an exponentially decaying function, i.e. ƒ=e^−k^off^*t The measurements were taken at 37° C. c) The equilibrium affinity of binding Kd between mSA-RF and biotin-fluorescein was measured by FP. d) mSA-S25H and mSA-RF were analyzed by size exclusion chromatography to estimate their molecular weights in solution. […]
# The binding of biotinylated fluorescein (bf, AnaSpec) was measured using a microplate reader (SpectraMax® i3 Microplate reader from Molecular Devices) in flat bottom 96 well plates (Sterilin Ltd). […] After overnight incubation at room temperature, the fluorescence polarization values were measured and fit to the quadratic binding equation (Hsu and Park, 2010, J Mol Graph Model, 29, 295-308). […] To observe dissociation of bf, excess free biotin was added to a final concentration of 100 μM and recording of fluorescence was started immediately. The intensity of polarized fluorescence was measured at various time points and normalized with respect to the value at t=0 min. […]
substance,measurement,setting,value
"Wt SA: wild type streptavidin, tetrameric, SEQ ID NO: 20 [reference compound]",t1/2,"dissociation half-life t1/2=0.693/koff, biotin-fluorescein",751 ± 261 min
same,Koff(×10^−3 min^−1),"dissociation of biotin-fluorescein, excess free biotin 100 μM",0.923 ± 0.0253 ×10^−3 min^−1
